Laboratory results taken from ChEMBL document CHEMBL3880429, “Aminopyrimidine compounds and their salts, process for preparation and pharmaceutical use thereof” (2012).
Active and inactive are the calls of the source. No cut-off for these calls is given here.

Tests used:
[1] = Cytotoxicity against human HL60 cells assessed as inhibition of cell proliferation after 48 hrs by MTT assay; type: functional, cell-based; details: HL-60, 48 h
[2] = Antitumor activity against human K562 cells xenografted in BALB/cA nude mouse assessed as tumor growth at 150 mg/kg, po qd administered via gavage for 21 days relative to control; type: functional
[3] = Antitumor activity against human K562 cells xenografted in BALB/cA nude mouse assessed as tumor growth at 37.5 mg/kg, po qd administered via gavage for 21 days relative to control; type: functional
K562 [4] = assay: Antitumor activity against human K562 cells xenografted in po dosed BALB/cA nude mouse assessed as tumor growth inhibition administered as qd via gavage for 21 days; type: functional, organism-based
K562 [5] = assay: Antitumor activity against human K562 cells xenografted in BALB/cA nude mouse assessed as extinction of tumor at 150 mg/kg, po qd administered via gavage for 21 days; type: functional, organism-based
[6] = Ratio of IC50 for human HL60 cells to IC50 for Bcr-Abl in human K562 cells
[7] = biological target: Bcr/Abl fusion protein (Homo sapiens) (UniProt P00519+P11274); assay: Potency index, ratio of imatinib IC50 to compound IC50 for Bcr-Abl in human K562 cells; type: cell-based
Sequence of Bcr/Abl fusion protein (Homo sapiens) (P00519 whole entry, looked up, the tested form may be a part): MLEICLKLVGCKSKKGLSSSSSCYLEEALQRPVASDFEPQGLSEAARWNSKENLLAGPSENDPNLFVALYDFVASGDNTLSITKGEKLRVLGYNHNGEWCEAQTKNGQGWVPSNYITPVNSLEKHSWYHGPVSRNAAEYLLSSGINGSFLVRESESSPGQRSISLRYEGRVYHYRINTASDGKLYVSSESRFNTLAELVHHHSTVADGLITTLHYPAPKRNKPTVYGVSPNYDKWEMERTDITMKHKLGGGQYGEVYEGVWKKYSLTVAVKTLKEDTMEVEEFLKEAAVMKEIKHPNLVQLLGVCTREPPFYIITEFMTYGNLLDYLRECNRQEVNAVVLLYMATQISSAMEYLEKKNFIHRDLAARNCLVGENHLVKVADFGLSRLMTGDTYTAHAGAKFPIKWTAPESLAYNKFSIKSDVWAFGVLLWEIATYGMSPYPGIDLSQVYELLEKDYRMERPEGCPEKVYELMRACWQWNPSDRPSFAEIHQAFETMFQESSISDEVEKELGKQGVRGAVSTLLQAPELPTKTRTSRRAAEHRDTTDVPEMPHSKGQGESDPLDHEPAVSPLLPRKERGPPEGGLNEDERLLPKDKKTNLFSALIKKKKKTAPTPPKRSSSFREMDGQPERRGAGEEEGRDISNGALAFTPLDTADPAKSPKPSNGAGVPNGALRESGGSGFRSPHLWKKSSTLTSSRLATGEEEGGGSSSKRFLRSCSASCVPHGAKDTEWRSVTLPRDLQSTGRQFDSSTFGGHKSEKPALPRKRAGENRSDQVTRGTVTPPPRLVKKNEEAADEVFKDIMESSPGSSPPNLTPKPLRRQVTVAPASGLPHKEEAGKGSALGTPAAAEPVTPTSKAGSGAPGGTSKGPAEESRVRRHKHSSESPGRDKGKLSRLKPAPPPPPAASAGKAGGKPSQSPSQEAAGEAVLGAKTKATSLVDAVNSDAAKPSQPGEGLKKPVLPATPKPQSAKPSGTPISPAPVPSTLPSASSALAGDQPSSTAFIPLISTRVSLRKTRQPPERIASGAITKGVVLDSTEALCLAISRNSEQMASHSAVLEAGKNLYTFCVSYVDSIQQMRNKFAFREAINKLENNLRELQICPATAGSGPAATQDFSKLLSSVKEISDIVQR
Sequence of Bcr/Abl fusion protein (Homo sapiens) (P11274 whole entry, looked up, the tested form may be a part): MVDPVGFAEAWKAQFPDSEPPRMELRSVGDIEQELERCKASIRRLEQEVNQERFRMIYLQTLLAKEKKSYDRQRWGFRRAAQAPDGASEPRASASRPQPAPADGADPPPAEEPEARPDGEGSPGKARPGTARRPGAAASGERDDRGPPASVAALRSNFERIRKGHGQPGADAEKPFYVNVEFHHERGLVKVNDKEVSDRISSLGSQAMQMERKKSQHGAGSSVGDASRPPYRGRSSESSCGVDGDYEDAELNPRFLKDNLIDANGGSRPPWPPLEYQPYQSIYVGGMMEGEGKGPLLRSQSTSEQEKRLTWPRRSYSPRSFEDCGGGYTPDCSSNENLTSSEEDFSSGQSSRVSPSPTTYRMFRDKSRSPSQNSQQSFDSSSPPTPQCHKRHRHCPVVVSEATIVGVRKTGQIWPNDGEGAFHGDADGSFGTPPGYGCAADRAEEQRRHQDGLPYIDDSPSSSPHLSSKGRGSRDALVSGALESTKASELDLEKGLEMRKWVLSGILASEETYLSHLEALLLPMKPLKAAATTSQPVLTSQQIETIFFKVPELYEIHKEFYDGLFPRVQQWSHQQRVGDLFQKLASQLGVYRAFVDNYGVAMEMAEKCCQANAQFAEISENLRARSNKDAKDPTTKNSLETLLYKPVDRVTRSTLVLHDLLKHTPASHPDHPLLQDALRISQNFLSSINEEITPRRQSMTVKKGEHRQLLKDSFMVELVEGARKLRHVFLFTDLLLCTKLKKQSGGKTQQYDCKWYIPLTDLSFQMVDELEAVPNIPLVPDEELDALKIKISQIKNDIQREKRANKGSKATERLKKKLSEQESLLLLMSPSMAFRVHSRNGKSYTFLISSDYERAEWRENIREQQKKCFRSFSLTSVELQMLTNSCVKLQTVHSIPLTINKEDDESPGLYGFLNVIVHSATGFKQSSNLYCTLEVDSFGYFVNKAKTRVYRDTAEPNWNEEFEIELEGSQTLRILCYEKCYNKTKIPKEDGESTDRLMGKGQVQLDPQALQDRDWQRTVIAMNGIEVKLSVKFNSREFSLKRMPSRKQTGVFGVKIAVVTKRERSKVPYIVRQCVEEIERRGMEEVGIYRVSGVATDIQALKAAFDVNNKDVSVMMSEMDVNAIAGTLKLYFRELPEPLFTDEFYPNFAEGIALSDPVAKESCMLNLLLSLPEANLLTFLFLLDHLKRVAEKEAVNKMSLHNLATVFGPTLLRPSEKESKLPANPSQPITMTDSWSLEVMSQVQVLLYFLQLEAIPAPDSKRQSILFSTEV

Structure (SMILES) | IC50 [1] | T/C [2] | T/C [3] | TGI (K562 [4]) | Activity (K562 [5]) | Ratio IC50 [6] | Ratio IC50 [7]
CS(=O)(=O)O.Cc1ncc(NC(=O)c2ccc(CN3CCN(C)CC3)c(C(F)(F)F)c2)cc1Nc1nccc(-c2cccnc2)n1 | 10 µM | 0% | 40.4% | Dose-dependent effect | Active | – | –
CS(=O)(=O)O.Cc1ccc(NC(=O)c2ccc(CN3CCN(C)CC3)cc2)cc1Nc1nccc(-c2cccnc2)n1 [IMATINIB MESYLATE] | – | 34.2 - 117.7% | – | – | – | – | –
CS(=O)(=O)O.Cc1ncc(NC(=O)c2ccc(CN3CCN(C)CC3)c(Cl)c2)cc1Nc1nccc(-c2cccnc2)n1 | – | 47.4% | – | – | – | 125 | 4
